Reference: PubChem BioAssay (NCI)
Where “and” joins values, the source holds several entries; their conditions need not be identical. Equal entries are not always repeated.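 1) Cells in 96-well plates. 2) Compound, 48 h, 5 concentrations. 3) Linear interpolation between surrounding doses. 4) Unreached endpoint = highest concentration. GI50 = concentration required for 50% inhibition of growth. Definition used: TGI = concentration required for complete inhibition of growth.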

Assays:
Assay in all cases: growth of human tumour cells (NCI), 48 h
NCI-H460 lung = test system: NCI-H460 lung
UACC-62 melanoma = test system: UACC-62 melanoma
COLO 205 colon = test system: COLO 205 colon
RXF 393 renal = test system: RXF 393 renal
EKVX NSCLC = test system: EKVX NSCLC
OVCAR-4 ovarian = test system: OVCAR-4 ovarian
A498 renal = test system: A498 renal
HOP-92 NSCLC = test system: HOP-92 NSCLC
HS 578T breast = test system: HS 578T breast
RPMI-8226 leukemia = test system: RPMI-8226 leukemia

SMILES | GI50 (NCI-H460 lung) | TGI (NCI-H460 lung) | GI50 (UACC-62 melanoma) | TGI (UACC-62 melanoma) | GI50 (COLO 205 colon) | TGI (COLO 205 colon) | GI50 (RXF 393 renal) | TGI (RXF 393 renal) | GI50 (EKVX NSCLC) | TGI (EKVX NSCLC) | GI50 (OVCAR-4 ovarian) | TGI (OVCAR-4 ovarian) | GI50 (A498 renal) | TGI (A498 renal) | GI50 (HOP-92 NSCLC) | TGI (HOP-92 NSCLC) | GI50 (HS 578T breast) [µM] | TGI (HS 578T breast) [µM] | GI50 (RPMI-8226 leukemia) [µM] | TGI (RPMI-8226 leukemia) [µM]
COc1cc(C2NC(=O)C(C#N)=C(Nc3cccc(C)c3)S2)ccc1O (centres undefined) | > 100 µM | > 100 µM | > 100 µM | > 100 µM | > 100 µM | > 100 µM | > 100 µM | > 100 µM | > 100 µM | > 100 µM | > 100 µM | > 100 µM | > 100 µM | > 100 µM | > 100 µM | > 100 µM | > 100 | > 100 | > 100 | > 100
COc1ccc(C(O)c2ccccn2)cc1 (centres undefined) | – | > 100 µM | – | > 100 µM | – | > 100 µM | – | > 100 µM | – | > 100 µM | – | > 100 µM | – | > 100 µM | – | > 100 µM | – | > 100 | – | > 100
CN1CCN(c2ccc(NC3=CC(=O)c4ncncc4C3=O)cc2)CC1 | 0.354 µM | 1.22 µM | 0.303 µM | 0.804 µM | 1.93 µM | 4.07 µM | 1.29 µM | 2.61 µM | 0.56 µM | 2.15 µM | 0.147 µM | 0.28 µM | 1.42 µM | 2.8 µM | 0.312 µM | 0.993 µM | 1.74 | 6.29 | 0.261 | 0.75
NS(=O)(=O)c1ccc(N=Nc2c[nH]c(=O)c(O)c2)cc1 | – | > 100 µM | – | > 100 µM | – | > 100 µM | – | > 100 µM | – | > 100 µM | – | > 100 µM | – | > 100 µM | – | > 100 µM | – | > 100 | – | > 100
FC(F)(F)c1cccc(-c2[nH]ncc2-c2nnnn2-c2ccccc2)c1 | 3.32 µM | 12.8 µM | 4.22 µM | 15.8 µM | 3.49 µM | 13 µM | 2.91 µM | 11.7 µM | 8.43 µM | 29.7 µM | 11.7 µM | 28.8 µM | 4.28 µM | 17.8 µM | – | 8.19 µM | 4.85 | 28.4 | 3.12 | 13.3
COC(=O)CC1=C(C)/C(=C/c2[nH]c(-c3ccc[nH]3)cc2OC)N=C1C | 0.179 µM | 2.2 µM | 0.216 µM | 0.56 µM | 0.123 µM | 0.814 µM | 0.0611 µM | 1.08 µM | 0.584 µM | 10.1 µM | 0.147 µM | 4.03 µM | 1.02 µM | 5.39 µM | 0.0571 µM | 0.337 µM | 0.423 | 2.14 | 0.0449 | 0.499
COC(=O)c1cc(-c2ccc(S(C)(=O)=O)cc2)[nH]c1N/N=C/c1c(Cl)cccc1Cl | 0.367 µM | 10.3 µM | 0.391 µM | > 47.9 µM | 0.491 µM | 4.72 µM | 1.04 µM | > 100 µM | 1.11 µM | > 76.1 µM | 1.7 µM | > 100 µM | 0.334 µM | 4.75 µM | 0.845 µM | > 28.2 µM | 0.318 | 3.45 | 0.491 | > 39.1
CNc1cc(-c2cccc(OC(F)(F)F)c2)nc2ccc(N3CCCC3)cc12 | 1.6 µM and 1.75 µM | 3.07 µM and 3.44 µM | 1.75 µM and 1.76 µM and 1.7 µM | 3.36 µM and 3.16 µM and 3.18 µM | 1.84 µM and 1.81 µM | 3.58 µM and 3.29 µM | 1.8 µM and 1.81 µM and 1.51 µM | 3.27 µM and 3.28 µM and 2.91 µM | 1.64 µM and 1.57 µM and 1.74 µM | 3.43 µM and 3.06 µM and 3.42 µM | 1.63 µM and 1.69 µM and 1.75 µM | 3.33 µM and 3.19 µM and 3.36 µM | 1.17 µM and 1.61 µM and 1.66 µM | 2.41 µM and 3 µM and 3.08 µM | 1.22 µM and 1.3 µM and 1.24 µM | 2.55 µM and 2.64 µM and 2.58 µM | 1.87 | 3.95 | 1.71 | 4.19
CN(C)c1ccc2[nH]c3c(C(N)=O)cc(=O)c(=O)c=3oc2c1 | 2.57 µM | > 100 µM | 1.74 µM | 5.32 µM | 3.5 µM | > 100 µM | 1.89 µM | 7.24 µM | 3.36 µM | 61.6 µM | 1.67 µM | 6.42 µM | 2.68 µM | 9.5 µM | 1.72 µM | 8.58 µM | 0.973 | 8.31 | 0.502 | > 100
COc1ccc2c(c1)-c1c(c3cc(OC)ccc3n(CCN(C)C)c1=O)C2=O | 0.341 µM | 2.09 µM | 3.11 µM | 9.73 µM | 0.461 µM | 4.7 µM | 1.59 µM | 7.23 µM | 1.37 µM | 10.2 µM | 0.799 µM | 4 µM | 1.36 µM | 6.48 µM | 2.65 µM | 50 µM | 1.7 | 7.81 | 0.445 | 1.97
CC/C=C\C[C@H]1C/C=C2/C(=O)C(Cl)=C[C@@H]2C/C=C\CCCC(=O)O1 | 0.545 µM | 1.89 µM | 0.28 µM | 1.2 µM | 0.467 µM | 0.958 µM | 0.4 µM | 0.802 µM | 0.805 µM | 4.62 µM | 0.952 µM | 4.9 µM | 0.56 µM | 1.43 µM | 0.499 µM | 1.6 µM | 0.698 | 25 | 0.0819 | 0.492
CCCCCCCCN=C(NCCCCCCCC)SCc1cccc2ccccc12 | 1.69 µM | 3.38 µM | 1.72 µM | 3.22 µM | 1.48 µM | 2.95 µM | 1.42 µM | 2.78 µM | 1.79 µM | 3.49 µM | 1.32 µM | 2.64 µM | 1.52 µM | 2.9 µM | 1.03 µM | 2.28 µM | 1.61 | 3.81 | 2.05 | 4.4
COc1ccc2c(c1)C(=O)c1c-2n(CCCN(C)C)c(=O)c2cc([N+](=O)[O-])ccc12 | < 0.01 µM | 0.234 µM | < 0.01 µM | < 0.01 µM | 0.0483 µM | 12.9 µM | < 0.01 µM | 0.0926 µM | 0.181 µM | 16.4 µM | 0.0515 µM | 9.37 µM | 0.036 µM | 0.694 µM | 0.0329 µM | 1.44 µM | 3.04 | 21.3 | < 0.01 | 0.0707
